Measurements published in PubChem BioAssay AID330 (DTP/NCI, 2004).
Where “and” joins values, the source holds several entries; their conditions need not be identical. Equal entries are not always repeated. Toxic doses and inconclusive results are not listed.

System: P388 leukemia ip, CD2F1 mice, survival T/C
Experiment: NCI In Vivo Anticancer Drug Screen. Data for tumor model P388 Leukemia (intraperitoneal) in CD2F1 (CDF1) mice
Conditions: endpoint: median survival time, higher = longer survival
How it was run: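 Mice carrying the transplanted tumor received test compound or vehicle. Survival was recorded in each group, and the value is the treated-group measurement divided by that of the vehicle-treated control group.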

Structure (SMILES): O=C1NC2(CCCCC2)C(=O)N1CCN(CCCl)CCCl
- T/C (dose: 0.62 mg/kg/injection, schedule: Q01DX005 (iv), vehicle: other): 108 % of control
- T/C (dose: 0.75 mg/kg/injection, schedule: Q01DX009 (ip), vehicle: saline): 112 % of control and 114 % of control and 122 % of control
- T/C (dose: 1.25 mg/kg/injection, schedule: Q01DX001 (iv), vehicle: other): 112 % of control
- T/C (dose: 1.25 mg/kg/injection, schedule: Q01DX001 (oral), vehicle: other): 101 % of control
- T/C (dose: 1.25 mg/kg/injection, schedule: Q01DX005 (iv), vehicle: other): 116 % of control
- T/C (dose: 1.25 mg/kg/injection, schedule: Q01DX009 (ip), vehicle: saline with Tween-80): 124 % of control
- T/C (dose: 1.5 mg/kg/injection, schedule: Q01DX005 (ip), vehicle: saline): 118 % of control and 119 % of control
- T/C (dose: 1.5 mg/kg/injection, schedule: Q01DX005 (ip), vehicle: suspension in saline): 119 % of control
- T/C (dose: 1.5 mg/kg/injection, schedule: Q01DX005 (iv), vehicle: suspension in saline): 101 % of control
- T/C (dose: 1.5 mg/kg/injection, schedule: Q01DX009 (ip), vehicle: Klucel (hydroxypropylcellulose) (HPC)): 164 % of control
- T/C (dose: 1.5 mg/kg/injection, schedule: Q01DX009 (ip), vehicle: other): 120 % of control
- T/C (dose: 2.5 mg/kg/injection, schedule: Q01DX001 (ip), vehicle: other): 121 % of control
- T/C (dose: 2.5 mg/kg/injection, schedule: Q01DX001 (iv), vehicle: other): 109 % of control
- T/C (dose: 2.5 mg/kg/injection, schedule: Q01DX005 (iv), vehicle: clinical formulation): 115 % of control and 121 % of control
- T/C (dose: 2.5 mg/kg/injection, schedule: Q01DX005 (iv), vehicle: other): 109 % of control
- T/C (dose: 2.5 mg/kg/injection, schedule: Q01DX005 (oral), vehicle: other): 100 % of control
- T/C (dose: 2.5 mg/kg/injection, schedule: Q01DX009 (ip), vehicle: clinical formulation): 152 % of control and 154 % of control and 180 % of control
- T/C (dose: 2.5 mg/kg/injection, schedule: Q01DX009 (ip), vehicle: other): 151 % of control
- T/C (dose: 2.5 mg/kg/injection, schedule: Q01DX009 (ip), vehicle: saline with Tween-80): 167 % of control
- T/C (dose: 2.5 mg/kg/injection, schedule: Q01DX009 (oral), vehicle: other): 109 % of control
- T/C (dose: 3.0 mg/kg/injection, schedule: Q01DX005 (iv), vehicle: suspension in saline): 105 % of control
- T/C (dose: 3.0 mg/kg/injection, schedule: Q01DX009 (ip), vehicle: Klucel (hydroxypropylcellulose) (HPC)): 166 % of control and 169 % of control
- T/C (dose: 3.0 mg/kg/injection, schedule: Q01DX009 (ip), vehicle: saline with Tween-80): 163 % of control
- T/C (dose: 3.0 mg/kg/injection, schedule: Q01DX009 (oral), vehicle: Klucel (hydroxypropylcellulose) (HPC)): 108 % of control
- T/C (dose: 3.0 mg/kg/injection, schedule: Q01DX009 (oral), vehicle: saline): 102 % of control
- T/C (dose: 5.0 mg/kg/injection, schedule: Q01DX001 (iv), vehicle: other): 105 % of control
- T/C (dose: 5.0 mg/kg/injection, schedule: Q01DX001 (oral), vehicle: other): 99 % of control
- T/C (dose: 5.0 mg/kg/injection, schedule: Q01DX005 (iv), vehicle: clinical formulation): 156 % of control
- T/C (dose: 5.0 mg/kg/injection, schedule: Q01DX005 (iv), vehicle: other): 113 % of control
- T/C (dose: 5.0 mg/kg/injection, schedule: Q01DX005 (oral), vehicle: other): 99 % of control
- T/C (dose: 5.0 mg/kg/injection, schedule: Q01DX009 (ip), vehicle: other): 175 % of control
- T/C (dose: 5.0 mg/kg/injection, schedule: Q01DX009 (oral), vehicle: other): 114 % of control
- T/C (dose: 6.0 mg/kg/injection, schedule: Q01DX005 (ip), vehicle: suspension in saline): 164 % of control
- T/C (dose: 6.0 mg/kg/injection, schedule: Q01DX005 (iv), vehicle: suspension in saline): 108 % of control
- T/C (dose: 6.0 mg/kg/injection, schedule: Q01DX009 (ip), vehicle: other): 157 % of control
- T/C (dose: 6.0 mg/kg/injection, schedule: Q01DX009 (oral), vehicle: Klucel (hydroxypropylcellulose) (HPC)): 102 % of control
- T/C (dose: 6.0 mg/kg/injection, schedule: Q01DX009 (oral), vehicle: saline): 108 % of control
- T/C (dose: 6.25 mg/kg/injection, schedule: Q01DX009 (oral), vehicle: Klucel (hydroxypropylcellulose) (HPC)): 112 % of control and 113 % of control
- T/C (dose: 8.0 mg/kg/injection, schedule: Q01DX001 (ip), vehicle: suspension in saline): 108 % of control and 116 % of control
- T/C (dose: 10.0 mg/kg/injection, schedule: Q01DX001 (iv), vehicle: other): 116 % of control
- T/C (dose: 10.0 mg/kg/injection, schedule: Q01DX001 (oral), vehicle: other): 107 % of control
- T/C (dose: 10.0 mg/kg/injection, schedule: Q01DX005 (iv), vehicle: clinical formulation): 104 % of control
- T/C (dose: 10.0 mg/kg/injection, schedule: Q01DX005 (oral), vehicle: other): 112 % of control
- T/C (dose: 10.0 mg/kg/injection, schedule: Q01DX009 (ip), vehicle: clinical formulation): 170 % of control
- T/C (dose: 10.0 mg/kg/injection, schedule: Q01DX009 (ip), vehicle: saline with Tween-80): 121 % of control
- T/C (dose: 10.0 mg/kg/injection, schedule: Q01DX009 (oral), vehicle: other): 116 % of control
- T/C (dose: 12.0 mg/kg/injection, schedule: Q01DX005 (ip), vehicle: saline): 163 % of control and 167 % of control
- T/C (dose: 12.0 mg/kg/injection, schedule: Q01DX009 (ip), vehicle: Klucel (hydroxypropylcellulose) (HPC)): 121 % of control
- T/C (dose: 12.0 mg/kg/injection, schedule: Q01DX009 (ip), vehicle: other): 168 % of control
- T/C (dose: 12.0 mg/kg/injection, schedule: Q01DX009 (oral), vehicle: Klucel (hydroxypropylcellulose) (HPC)): 117 % of control
- T/C (dose: 12.0 mg/kg/injection, schedule: Q01DX009 (oral), vehicle: other): 100 % of control
- T/C (dose: 12.0 mg/kg/injection, schedule: Q01DX009 (oral), vehicle: saline): 110 % of control
- T/C (dose: 12.5 mg/kg/injection, schedule: Q01DX009 (oral), vehicle: Klucel (hydroxypropylcellulose) (HPC)): 115 % of control and 120 % of control
- T/C (dose: 15.0 mg/kg/injection, schedule: Q01DX009 (ip), vehicle: Klucel (hydroxypropylcellulose) (HPC)): 100 % of control
- T/C (dose: 16.0 mg/kg/injection, schedule: Q01DX001 (ip), vehicle: suspension in saline): 104 % of control
- T/C (dose: 20.0 mg/kg/injection, schedule: Q01DX001 (ip), vehicle: other): 151 % of control
- T/C (dose: 20.0 mg/kg/injection, schedule: Q01DX001 (iv), vehicle: other): 122 % of control
- T/C (dose: 20.0 mg/kg/injection, schedule: Q01DX001 (oral), vehicle: other): 104 % of control
- T/C (dose: 20.0 mg/kg/injection, schedule: Q01DX005 (oral), vehicle: other): 109 % of control
- T/C (dose: 24.0 mg/kg/injection, schedule: Q01DX005 (ip), vehicle: saline): 181 % of control
- T/C (dose: 24.0 mg/kg/injection, schedule: Q01DX005 (iv), vehicle: suspension in saline): 117 % of control
- T/C (dose: 24.0 mg/kg/injection, schedule: Q01DX009 (oral), vehicle: Klucel (hydroxypropylcellulose) (HPC)): 122 % of control
- T/C (dose: 24.0 mg/kg/injection, schedule: Q01DX009 (oral), vehicle: other): 107 % of control
- T/C (dose: 24.0 mg/kg/injection, schedule: Q01DX009 (oral), vehicle: saline): 113 % of control
- T/C (dose: 25.0 mg/kg/injection, schedule: Q01DX001 (ip), vehicle: Klucel (hydroxypropylcellulose) (HPC)): 168 % of control
- T/C (dose: 25.0 mg/kg/injection, schedule: Q01DX001 (ip), vehicle: saline): 175 % of control
- T/C (dose: 32.0 mg/kg/injection, schedule: Q01DX001 (ip), vehicle: suspension in saline): 101 % of control
- T/C (dose: 32.0 mg/kg/injection, schedule: Q01DX001 (oral), vehicle: suspension in saline): 100 % of control
- T/C (dose: 40.0 mg/kg/injection, schedule: Q01DX001 (ip), vehicle: other): 181 % of control
- T/C (dose: 40.0 mg/kg/injection, schedule: Q01DX001 (oral), vehicle: other): 101 % of control
- T/C (dose: 40.0 mg/kg/injection, schedule: Q01DX005 (oral), vehicle: other): 118 % of control
- T/C (dose: 40.0 mg/kg/injection, schedule: Q01DX009 (oral), vehicle: other): 115 % of control
- T/C (dose: 48.0 mg/kg/injection, schedule: Q01DX009 (oral), vehicle: Klucel (hydroxypropylcellulose) (HPC)): 119 % of control
- T/C (dose: 48.0 mg/kg/injection, schedule: Q01DX009 (oral), vehicle: other): 103 % of control
- T/C (dose: 48.0 mg/kg/injection, schedule: Q01DX009 (oral), vehicle: saline): 119 % of control
- T/C (dose: 50.0 mg/kg/injection, schedule: Q01DX009 (oral), vehicle: Klucel (hydroxypropylcellulose) (HPC)): 155 % of control
- T/C (dose: 64.0 mg/kg/injection, schedule: Q01DX001 (ip), vehicle: saline): 163 % of control
- T/C (dose: 64.0 mg/kg/injection, schedule: Q01DX001 (ip), vehicle: suspension in saline): 101 % of control
- T/C (dose: 64.0 mg/kg/injection, schedule: Q01DX001 (oral), vehicle: saline): 99 % of control
- T/C (dose: 64.0 mg/kg/injection, schedule: Q01DX001 (oral), vehicle: suspension in saline): 106 % of control and 108 % of control
- T/C (dose: 96.0 mg/kg/injection, schedule: Q01DX009 (oral), vehicle: other): 107 % of control
- T/C (dose: 100.0 mg/kg/injection, schedule: Q01DX009 (oral), vehicle: Klucel (hydroxypropylcellulose) (HPC)): 120 % of control
- T/C (dose: 128.0 mg/kg/injection, schedule: Q01DX001 (oral), vehicle: saline): 99 % of control
- T/C (dose: 128.0 mg/kg/injection, schedule: Q01DX001 (oral), vehicle: suspension in saline): 102 % of control and 109 % of control
- T/C (dose: 256.0 mg/kg/injection, schedule: Q01DX001 (oral), vehicle: saline): 107 % of control
- T/C (dose: 256.0 mg/kg/injection, schedule: Q01DX001 (oral), vehicle: suspension in saline): 103 % of control and 105 % of control
